For the assay, the target named is T1, TrpI (PpTrpI/PPP_RS00425 inducible system) (Pseudomonas putida, UniProt Q88RP5).
T1 sequence (Q88RP5 1-298): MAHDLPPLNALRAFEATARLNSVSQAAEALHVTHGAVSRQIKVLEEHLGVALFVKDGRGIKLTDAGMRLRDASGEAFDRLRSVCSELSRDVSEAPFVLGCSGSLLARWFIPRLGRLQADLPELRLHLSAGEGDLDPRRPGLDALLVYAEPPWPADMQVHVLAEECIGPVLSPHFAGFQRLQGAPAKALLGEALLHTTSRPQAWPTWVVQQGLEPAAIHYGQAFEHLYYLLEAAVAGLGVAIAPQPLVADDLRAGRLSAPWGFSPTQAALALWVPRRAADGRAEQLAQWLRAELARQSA
Briefly: RFP reporter induction in whole cells, Hill fit. Type of assay: cell-based. To be noted: read-out: Km. The text has this:
RFP reporter induction in whole cells, Hill fit on TrpI (PpTrpI/PPP_RS00425 inducible system)

pEC50: −log10 of the molar value.

The source of these data is paper PMC9105386, “Development and Characterization of Indole-Responsive Whole-Cell Biosensor Based on the Inducible Gene Expression System from Pseudomonas putida KT2440” (International Journal of Molecular Sciences, 2022).

Turning to `c1ccc2[nH]ccc2c1` [compound 1, indole], the pEC50 is 2.87.
